From patent US20050222167A1, “9-aminoacridine derivatives and process for the preparation thereof” (priority 2002, published 2005)
≈ marks a conversion by molar mass, not a printed value.

What was measured:
[1] = tested on: P388 (mouse lymphoid neoplasma cell); experiment: Dye exclusion assay, in vitro antitumor effects against animal leukemia cells; type: cell-based; conditions: P388, trypan blue dye exclusion, 48 hours, read-out: concentration showing 50% cell growth inhibition (IC50)
Source text: Experimental 2: In Vitro Antitumor Effects Against Animal Leukemia Cells. A. Material:
Tumor cell lines: P388 (mouse lymphoid neoplasma cell)
B. Method: Dye Exclusion Assay.

SKMEL-2 (human melanoma) = experiment: SRB assay, in vitro antitumor effect against human tumor cell lines; type: cell-based; conditions: SK-MEL-2, SRB assay, 48 hours
Protocol: (§1) Experimental 1: In vitro antitumor effect against human tumor cell lines.
(§2) A. Tumor cell lines: A549 (human non-small lung cell)
(§3) • SKOV-3 (human ovarian) • HCT-15 (human colon) • XF-498 (human CNS) • SKMEL-2 (human melanoma) B. Method: SRB Assay • a. Human solid tumor cell lines, A549(non-small lung cell), SKMEL-2(melanoma), HCT-15(colon), SKOV-3(ovarian) and XF-498(CNS) were cultured in 5% CO2 incubators using the RPMI 1640 media containing 10% FBS at 37° C., while with transfer-culturing successively once or twice per week. Cell cultures were dissolved in a solution of 0.25% trysin and 3 mmol CDTA PBS(−) to separate the cells sticked on the culture media. • b. 5 103˜2 104 cells were added into each well of 96-well plate and cultured in 5% CO2 incubator at 37° C. for 24 hours. • c. Each sample drug was dissolved in a little DMSO and diluted with the used medium to a prescribed concentration for experiment, while the final concentration of DMSO was adjusted below 0.5%. • d. Medium of each well cultured for 24 hours as above b. was removed by aspiration. Each 200 μl of drug samples prepared in c. was added into each well and the wells were cultured for 48 hours. Tz (time zero) plates were collected at the point of time drugs were added. • e. According to the SRB assay method, cell fixing with TCA, staining with 0.4% SRB solution, washing with 1% acetic acid and elution of dye with 10 mmol Tris solution were carried out on Tz plates and culture-ended plates, and then, OD values were measured at 520 nm. C. Calculation of Result • a. Time zero (Tz) value was determined with measuring the SRB protein value at the point of time drugs were added. • b. Control value (C) was determined with the OD value of an well untreated with drug. • c. Drug-treated test value (T) was determined with the OD value of drug-treated well. • d. Effects of drugs were estimated with growth stimulation, net growth inhibition and net killing calculated from Tz, C and T values. • e. If T≧Tz, cellular response function was calculated by 100×(T−Tz)/(C−Tz), and, if T<Tz, by 100 (T−Tz)/Tz.

SKOV-3 (human ovarian) = experiment: as above; type: cell-based; conditions: SK-OV-3, SRB assay, 48 hours
Protocol: as §1, §2, §3

XF-498 (human CNS) = experiment: as above; type: cell-based; conditions: XF-498, SRB assay, 48 hours
Protocol: as §1, §2, §3

HCT-15 (human colon) = experiment: as above; type: cell-based; conditions: HCT-15, SRB assay, 48 hours
Protocol: as §1, §2, §3

[2] = tested on: A549 (human non-small lung cell); experiment: as above; type: cell-based; conditions: 48 hours
Protocol: as §1, §2, §3

Leukemia P388 cells = experiment: In vivo antitumor effects against mouse leukemia P388 cells; conditions: abdominal cavity, days 1, 5, 9, BDF1 mice with P388
Protocol: Experimental 3: In Vivo Antitumor Effects Against Mouse Leukemia P388 Cells A. Material of Experiment • BDF1 mice were used. B. Method of Experiment • 1) Leukemia P388 cells being transfer-cultured successively in DBA/2 mouse, were grafted into each mouse of a group comprising 8 mice of 6 week old BDF1 mouse with the dose of 1×10^6 cells/0.1 ml • 2) Sample drugs were dissolved in PBS or suspended in 0.5% tween 80, and then injected into abdominal cavity of mouse at each prescribed concentration on days 1, 5, 9, respectively. • 3) With observation everyday, survival times of tested mice were measured. Antitumor activities was deternimed in such a manner that the increasing ratio (T/C %) of average survival days of drug-treated groups compared with the control group was calculated using the mean survival times of each tested groups.

[3] = Acute toxicity test (LD50), Litchfield-Wilcoxon method; conditions: male, mouse, in vivo; iv, ICR mice, observed 14 days
Protocol: Experimental 4. Acute Toxicity Test (LD50): a) Method: Litchfield-Wilcoxon Method.
6-week-old ICR mice (male 30 2.0 g) were fed freely with solid feed and water at room temperature, […], and at humidity 60 5%. Sample drugs were injected into the abdominal cavities of mice. Each group comprised 6 mice. […] LD50 value was calculated by Litchfield-wilcoxon method.

| Structure (SMILES) | IC50 [1] [µg/mL] | ED50 (SKMEL-2 (human melanoma)) [µg/mL] | ED50 (SKOV-3 (human ovarian)) [µg/mL] | ED50 (XF-498 (human CNS)) [µg/mL] | ED50 (HCT-15 (human colon)) [µg/mL] | ED50 [2] [µg/mL] | MST (Leukemia P388 cells; Dose 25 mg/kg) [days] | T/C (%) (Leukemia P388 cells; Dose 25 mg/kg) | MST (Leukemia P388 cells; Dose 50 mg/kg) [days] | T/C (%) (Leukemia P388 cells; Dose 50 mg/kg) | MST (Leukemia P388 cells; Dose 100 mg/kg) [days] | T/C (%) (Leukemia P388 cells; Dose 100 mg/kg) | LD50 at 14 days [3] [mg/kg] |
| --- | --- | --- | --- | --- | --- | --- | --- | --- | --- | --- | --- | --- | --- |
| CCCc1nc(OC)c(NC(=O)N2CCN(c3cc(OC)cc(OC)c3)CC2)cc1C(=O)NC(C)C(=O)Nc1cc(CO)cc(Nc2c3ccccc3nc3ccccc23)c1 (stereo not shown) [Example 9, 4-(3,5-dimethoxyphenyl)piperazine-1-carboxylic acid (5-{1-[3-(acridine-9-yl-amino)-5-hydroxymethylphenylcarbamoyl]-ethylcarbamoyl}-2-methoxy-6-propylpyridine-3-yl)-amide] | 0.4 (≈ 0.484 µM) | 0.15 (≈ 0.181 µM) | 0.19 (≈ 0.23 µM) | 0.15 (≈ 0.181 µM) | 0.15 (≈ 0.181 µM) | 0.24 (≈ 0.29 µM) | – | – | – | – | – | – | – |
| N.N.[Cl][Pt][Cl] [Cisplatin, cisplatin, reference compound] | – | 0.71 | 0.71 | 0.77 | 3.03 | 0.81 | – | – | – | – | – | – | – |
| CCc1nc(OC)c(NC(=O)N2CCN(c3cc(C)cc(C)c3)CC2)cc1C(=O)NC(C)C(=O)Nc1cc(CO)cc(Nc2c3ccccc3nc3c(C)c(C)ccc23)c1 (stereo not shown) [Example 16, 4-(3,5-dimethylphenyl)piperazine-1-carboxylic acid (5-{1-[3-(3,4-dimethylacridine-9-yl-amino)-5-hydroxymethylphenylcarbamoyl]-ethylcarbamoyl}-6-ethyl-2-methoxypyridine-3-yl)amide] | 0.3 (≈ 0.371 µM) | 0.02 (≈ 0.0247 µM) | 0.14 (≈ 0.173 µM) | 0.09 (≈ 0.111 µM) | 0.07 (≈ 0.0865 µM) | 0.08 (≈ 0.0989 µM) | – | – | – | – | – | – | – |
| CCc1nc(OC)c(NC(=O)N2CCN(c3cc(F)cc(F)c3)CC2)cc1C(=O)NC(C)C(=O)Nc1cc(CO)cc(Nc2c3ccccc3nc3ccccc23)c1 (stereo not shown) [Example 4, 4-(3,5-difluorophenyl)piperazine-1-carboxylic acid (5-{1-[3-(acridine-9-yl-amino)-5-hydroxymethylphenylcarbamoyl]-ethylcarbamoyl}-6-ethyl-2-methoxypyridine-3-yl)amide] | 0.9 (≈ 1.14 µM) | – | – | – | – | – | – | – | – | – | – | – | – |
| CCc1nc(OC)c(NC(=O)N2CCN(c3cc(C)cc(C)c3)CC2)cc1C(=O)Nc1cc(CO)cc(Nc2c3ccccc3nc3ccccc23)c1 [Example 19, 4-(3,5-dimethylphenyl)-piperazine-1-carboxylic acid{5-[3-(acridine-9-yl-amino)-5-hydroxymethylphenylcarbamoyl]-6-ethyl-2-methoxy-pyridine-3-yl}amide] | – | 0.18 (≈ 0.254 µM) | 0.17 (≈ 0.239 µM) | 0.38 (≈ 0.535 µM) | 0.27 (≈ 0.38 µM) | 0.21 (≈ 0.296 µM) | – | – | – | – | – | – | – |
| CCc1nc(OC)c(NC(=O)N2CCN(c3cc(OC)cc(OC)c3)CC2)cc1C(=O)NC(C)C(=O)Nc1cc(CO)cc(Nc2c3ccccc3nc3ccccc23)c1 (stereo not shown) [Example 3, 4-(3,5-dimethoxyphenyl)piperazine-1-carboxylic acid (5-{1-[3-(acridine-9-yl-amino)-5-hydroxymethylphenylcarbamoyl]-ethylcarbamoyl}-6-ethyl-2-methoxypyridine-3-yl)amide] | 1 (≈ 1.23 µM) | 0.03 (≈ 0.0369 µM) | 0.19 (≈ 0.234 µM) | 0.18 (≈ 0.221 µM) | 0.13 (≈ 0.16 µM) | 0.12 (≈ 0.148 µM) | 17.0 | 154.5 | >60.0 | >545.5 | 11.6 | 100.0 | 80 |
| CCc1nc(OC)c(NC(=O)N2CCN(c3cc(C)cc(C)c3)CC2)cc1C(=O)NC(C)C(=O)Nc1cc(CO)cc(Nc2c3ccccc3nc3ccccc23)c1 (stereo not shown) [Example 2, 4-(3,5-dimethylphenyl)piperazine-1-carboxylic acid (5-{1-[3-(acridine-9-yl-amino)-5-hydroxymethylphenylcarbamoyl]-ethylcarbamoyl}-6-ethyl-2-methoxypyridine-3-yl)amide] | 0.3 (≈ 0.384 µM) | 0.01 (≈ 0.0128 µM) | 0.12 (≈ 0.154 µM) | 0.18 (≈ 0.23 µM) | 0.19 (≈ 0.243 µM) | 0.12 (≈ 0.154 µM) | >60.0 | >545.5 | >60.0 | >545.5 | 22.0 | 200.0 | 80 |
